In patent US7820379B2, “Process for high throughput screening of CpG-based immuno-agonist/antagonist” (Coley Pharmaceutical GmbH, priority 2000, dated 2010):
pEC50: −log10 of the molar value.

The sequences below were run against T1, murine TLR9 (Mus musculus, UniProt Q9EQU3, L378S/Q579H/T325N/T573A/T867A) (assay: NF-κB-luciferase activation in 293 cells transfected with murine TLR9 (293-mTLR9-luc)). Settings: CpG-ODN 1668 compared with CpG-ODN 2006.
T1 construct: additional primers were designed for amplification of the complete mouse TLR9 cDNA; expressed in transfected cells
T1 sequence (Q9EQU3 26-1032 T325N/L378S/T573A/Q579H/T867A): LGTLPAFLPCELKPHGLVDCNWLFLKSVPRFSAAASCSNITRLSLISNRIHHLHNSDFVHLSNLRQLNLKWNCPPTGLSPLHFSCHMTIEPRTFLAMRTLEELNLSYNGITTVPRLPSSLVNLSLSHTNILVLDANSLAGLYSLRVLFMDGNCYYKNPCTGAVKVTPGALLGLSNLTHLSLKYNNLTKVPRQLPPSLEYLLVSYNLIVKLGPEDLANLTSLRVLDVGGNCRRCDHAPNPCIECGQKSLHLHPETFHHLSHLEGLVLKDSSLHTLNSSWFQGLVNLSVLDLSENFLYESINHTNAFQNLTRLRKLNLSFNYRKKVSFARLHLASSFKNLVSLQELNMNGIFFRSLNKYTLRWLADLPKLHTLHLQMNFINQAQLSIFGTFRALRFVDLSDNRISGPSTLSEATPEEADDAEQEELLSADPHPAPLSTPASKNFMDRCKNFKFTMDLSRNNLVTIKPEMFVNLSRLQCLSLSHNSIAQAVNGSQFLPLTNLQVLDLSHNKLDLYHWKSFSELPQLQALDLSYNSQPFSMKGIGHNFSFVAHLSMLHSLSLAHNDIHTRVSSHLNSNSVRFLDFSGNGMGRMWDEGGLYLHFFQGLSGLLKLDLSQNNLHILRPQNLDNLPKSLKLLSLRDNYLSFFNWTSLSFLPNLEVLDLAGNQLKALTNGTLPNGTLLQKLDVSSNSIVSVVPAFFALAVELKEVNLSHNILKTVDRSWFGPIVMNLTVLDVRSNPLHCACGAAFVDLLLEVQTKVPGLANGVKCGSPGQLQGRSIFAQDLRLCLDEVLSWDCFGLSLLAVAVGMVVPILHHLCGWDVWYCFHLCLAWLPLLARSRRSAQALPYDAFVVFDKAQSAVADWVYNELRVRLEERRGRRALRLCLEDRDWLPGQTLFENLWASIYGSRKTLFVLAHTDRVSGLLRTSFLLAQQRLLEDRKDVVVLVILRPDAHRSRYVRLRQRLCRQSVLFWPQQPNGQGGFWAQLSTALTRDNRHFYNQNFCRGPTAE
Assay type: cell-based
Description: Human fibroblast 293 cells were transiently transfected with mTLR9 and the NF-κB-luc construct (FIG. 2). Similar data was obtained for IL-8 production (not shown). Thus expression of TLR9 (human or mouse) in 293 cells results in a gain of function for CpG-DNA stimulation similar to hTLR4 reconstitution of LPS responses.
To generate stable clones expressing human TLR9, murine TLR9, or either TLR9 with the NF-κB-luc reporter plasmid, 293 cells were transfected in 10 cm plates (2×10^6 cells/plate) with 16 μg of DNA and selected with 0.7 mg/ml G418 (PAA Laboratories GmbH, Cölbe, Germany). The clones were also screened for IL-8 production or NF-κB-luciferase activity after stimulation with ODN. Four different types of clones were generated. • 293-hTLR9-luc: expressing human TLR9 and 6-fold NF-κB-luciferase reporter • 293-mTLR9-luc: expressing murine TLR9 and 6-fold NF-κB-luciferase reporter • 293-hTLR9: expressing human TLR9 • 293-mTLR9: expressing murine TLR9
Similar results were obtained utilizing IL-8 production with the stable clone 293-hTLR9. 293-mTLR9-luc were also stimulated with CpG-ODN (1668, 2 μM; […], SEQ ID NO:84), GpC-ODN (1668-GC, 2 μM; […], SEQ ID NO:85), Me-CpG-ODN (1668 methylated, 2 μM; TCCATGAZGTTCCTGATGCT, Z=5-methylcytidine, SEQ ID NO:207), LPS (100 ng/ml) or media, as measured by monitoring NF-κB activation (FIG. 5). Similar results were obtained utilizing IL-8 production with the stable clone 293-mTLR9. Results are representative of at least two independent experiments. […] These cells can be used for screening of optimal ligands for innate immune responses driven by TLR9 in multiple species.
Because stable TLR9 transfectants mirrored primary cell responsiveness to CpG-DNA (FIGS. 4 and 5), it was hypothesized that stable transfectants could potentially discern species-specific CpG-motifs through TLR9 receptors. Therefore 293-hTLR9-luc (expressing human TLR9 and 6-fold NF-κB-luc reporter), 293-mTLR9-luc (expressing murine TLR9 and 6-fold NF-κB-luc reporter), 293-hTLR9 (expressing human TLR9) and 293-mTLR9 (expressing murine TLR9) clones were tested for CpG-DNA motif responsiveness. […] Depicted are both NF-κB-driven luciferase and IL-8 production as readout. […] After lysis of the cells luciferase can be detected photometrically based on an enzymatic reaction by luciferase which creates photons. IL-8 production was monitored using enzyme-linked immunosorbent assay (ELISA). […] Results shown in FIG. 11 are representative of three independent experiments. Strikingly, CpG-motif sequence specificity was conferred in a species-specific manner by TLR9. Additionally, the half-maximal concentration for either 2006 or 1668 appears nearly the same as those determined on primary cells (compare FIG. 10 and FIG. 11).
Although 2006 and 1668 are discussed in terms of CpG-motif differences, they are very different in several aspects (see Table 5 for comparison). The lengths are different, 24 versus 20 nucleotides, and 2006 has four CG dinucleotides compared to one in 1668. Additional differences are the CG position relative to the 5′ and 3′ ends and also 5′ sequence differences. In order to determine if motif specificity is a quality of the motif and not the global sequence environment, for this experiment several sequences were produced holding these variables constant. As a starting point, the 1668 sequence was modified by converting the central C to T and the distal TG to CG, thereby creating a second CG in the resulting sequence 5000 (SEQ ID NO:130, Table 5). Then point nucleotide changes were made, progressing toward a 2006-like sequence, 5007 (SEQ ID NO:98). The ODN 5002 (SEQ ID NO:132) is most like 1668 with the exception that C's at positions 12 and 19 have been converted to T's. […]
In the case of “TCCATGACGTTCCTGATGCT (listed as DNA, chemistry not fully specified) [ODN 1668]”, the “murine TLR9 signaling response” value was “significantly stronger”.

Same assay, conditions: ODN concentration of half-maximal activation; 293-mTLR9-luc cells, NF-κB-driven luciferase readout, 12 hours; read-out: 293-mTLR9 Kac
Work on “TCCATGACGTTCCTGATGCT (listed as DNA, chemistry not fully specified) [ODN 1668]” yielded a pEC50 of 7.15. Work on “TCCATGACGTTCTTGACGCT (listed as DNA, chemistry not fully specified) [ODN 5000]” yielded a pEC50 of 7.09. “TCCATGACGTTCTTGACGTT (listed as DNA, chemistry not fully specified) [ODN 5001]” was tested, and the pEC50 was 7.26. Sequence “TCCATGAGCTTCCTGATGCT (listed as DNA, chemistry not fully specified) [ODN 1668-GC]” has a pEC50 of less than 5.00. In the case of “TCCATGTCGTTCTTGATGTT (listed as DNA, chemistry not fully specified) [ODN 5004]”, the pEC50 was 6.40. “TCCATGTCGTTTTTGATGTT (listed as DNA, chemistry not fully specified) [ODN 5005]” showed a pEC50 of 5.70. “TCCATGTCGTTTTTGTCGTT (listed as DNA, chemistry not fully specified) [ODN 5007]” showed a pEC50 of 6.00. “TCCATGTCGTTTTTGTTGTT (listed as DNA, chemistry not fully specified) [ODN 5006]” was tested, and the pEC50 was 6.19. Work on TCGTCGTTTTGTCGTTTTGTCGTT [ODN 2006] yielded a pEC50 of less than 5.00. Sequence “TGCTGCTTTTGTGCTTTTGTGCTT (listed as DNA, chemistry not fully specified) [ODN 2006-GC]” has a pEC50 of less than 5.00.
